The target in assay [1] is T1, recombinant human CL receptor/RAMP1 (Homo sapiens, UniProt O60894+Q16602).
T1 construct: expressed in transfected cells
In words: Recombinant receptor binding assay (125I-hCGRP). The following applies: membranes of HEK 293 cells expressing human CL receptor/RAMP1, 10 pM 125I-hCGRP, 3 h room temperature. As to the method:
(§1) RECOMBINANT RECEPTOR: Human CL receptor (Genbank accession number L76380) was subcloned into the expression vector pIREShyg2 (BD Biosciences Clontech) as a 5′NheI and 3′ PmeI fragment. Human RAMP1 (Genbank accession number AJ001014) was subcloned into the expression vector pIRESpuro2 (BD Biosciences Clontech) as a 5′NheI and 3′NotI fragment. HEK 293 cells (human embryonic kidney cells; ATCC #CRL-1573) were cultured in DMEM with 4.5 g/L glucose, 1 mM sodium pyruvate and 2 mM glutamine supplemented with 10% fetal bovine serum (FBS), 100 units/mL penicillin and 100 μg/mL streptomycin, and maintained at 37° C. and 95% humidity. Cells were subcultured by treatment with 0.25% trypsin with 0.1% EDTA in HBSS. Stable cell line generation was accomplished by co-transfecting 10 μg of DNA with 30 μg Lipofectamine 2000 (Invitrogen) in 75 cm^2 flasks. CL receptor and RAMP1 expression constructs were co-transfected in equal amounts. […]
[formula] Where Y is observed CPM bound, Ymax is total bound counts, Ymin is non specific bound counts, (Ymax−Ymin) is specific bound counts, % Imax is the maximum percent inhibition, % I min is the minimum percent inhibition, radiolabel is the probe, and the Kd is the apparent dissociation constant for the radioligand for the receptor as determined by hot saturation experiments.

Assay [2] addresses T1, recombinant human CL receptor/RAMP1. The assay is described as follows: Recombinant receptor functional assay (cAMP, HTRF). As to conditions: HEK 293 cells, 1.2 nM human α-CGRP, cAMP determination. Type of assay: cell-based. On the procedure:
as §1
RECOMBINANT RECEPTOR FUNCTIONAL ASSAY: Cells were resuspended in DMEM/F12 (Hyclone) supplemented with 1 g/L BSA and 300 μM isobutyl-methylxanthine. […] Raw data were transformed into concentration of cAMP using a standard curve then dose response curves were plotted and inflection point (IP) values were determined.
A general note: In TR-FRET formats the signal depends on donor and acceptor labels being close together.

The values that follow come from patent US9227972B2, “Aliphatic spirolactam CGRP receptor antagonists” (Merck Sharp & Dohme Corp., priority 2012, dated 2016).

pIC50, pKi: −log10 of the molar value.

T1 sequence (Q16602 23-461): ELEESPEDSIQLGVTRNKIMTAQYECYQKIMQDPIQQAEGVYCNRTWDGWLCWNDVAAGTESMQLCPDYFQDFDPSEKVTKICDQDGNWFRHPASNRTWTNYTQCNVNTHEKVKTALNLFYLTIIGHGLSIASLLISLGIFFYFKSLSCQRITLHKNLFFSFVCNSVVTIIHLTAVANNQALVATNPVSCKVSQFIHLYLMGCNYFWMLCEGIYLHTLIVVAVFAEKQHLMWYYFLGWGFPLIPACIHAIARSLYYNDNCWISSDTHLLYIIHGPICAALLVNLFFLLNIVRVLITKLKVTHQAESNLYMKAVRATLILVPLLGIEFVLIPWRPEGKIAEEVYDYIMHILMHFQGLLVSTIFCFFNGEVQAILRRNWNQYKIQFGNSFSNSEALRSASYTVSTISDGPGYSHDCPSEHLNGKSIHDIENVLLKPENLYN
T1 sequence (O60894 27-148): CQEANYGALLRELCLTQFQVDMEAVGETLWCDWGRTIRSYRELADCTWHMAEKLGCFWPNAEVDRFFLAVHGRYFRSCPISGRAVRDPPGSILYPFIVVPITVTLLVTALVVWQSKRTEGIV

For `C[C@@H]1[C@H](c2ccccc2)C[C@H](NCC(F)(F)c2cnc3c(c2)C[C@@]2(C3)C(=O)Nc3ncccc32)C(=O)N1CC(F)(F)F` [Example 2, (6S)-3-(1,1-Difluoro-2-(((3S,5S,6R)-6-methyl-2-oxo-5-phenyl-1-(2,2,2-trifluoroethyl)piperidin-3-yl)amino)ethyl)-5,7-dihydrospiro[cyclopenta[b]pyridine-6,3′-pyrrolo[2,3-b]pyridin]-2′(1′H)-one], the negative-log Ki (pKi) in assay [1] is 6.39. Consider `CC1C(c2cc(F)cc(F)c2F)CC(CC=Cc2cnc3c(c2)C[C@@]2(C3)C(=O)Nc3ncccc32)C(=O)N1CC(F)(F)F` (stereo partly drawn) [Example 1, (3′S)-3-(3-(6-Methyl-2-oxo-1-(2,2,2-trifluoroethyl)-5-(2,3,5-trifluorophenyl)piperidin-3-yl)prop-1-en-1-yl)-5,7-dihydrospiro[cyclopenta[b]pyridine-6,3′-pyrrolo[2,3-b]pyridin]-2′(1′H)-one], for which the negative-log IC50 (pIC50) in assay [2] was 8.14. As to `C[C@@H]1[C@H](c2ccccc2)C[C@H](NS(=O)(=O)c2cnc3c(c2)C[C@@]2(C3)C(=O)Nc3ncccc32)C(=O)N1CC(F)(F)F` [Example 3, (6S)—N-[(3S,5S,6R)-6-Methyl-2-oxo-5-phenyl-1-(2,2,2-trifluoroethyl)piperidin-3-yl]-2′-oxo-1′,2′,5,7-tetrahydrospiro[cyclopenta[b]pyridine-6,3′-pyrrolo[2,3-b]pyridine]-3-sulfonamide], the pIC50 in assay [2] was 5.43.

What is called pKi is −log10 of the Ki, conventionally taken in molar units. What is called pIC50 is the IC50 on a negative log10 scale, so that one unit is a factor of ten.
